Experimental data published in publication PMC8333425, “Discovery of a dual Ras and ARF6 inhibitor from a GPCR endocytosis screen” (Nature Communications, 2021).

Legend:
Test in all cases: KINOMEscan kinase binding assay
[1] = biological target: T1, 384 kinases from the human genome (Homo sapiens, UniProt Q9BWU1); settings: kinase CDK11 (Entrez CDK19)
T1 construct: purchased Eurofin/DiscoverX
Procedure, shortened: (§1)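 A panel of 384 human kinases was profiled by KINOMEscan binding in the presence of 10 µM compound. Kinase–ligand binding was given as percent of DMSO control, averaged from duplicates in a single run, with an S(10) selectivity score.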

[2] = biological target: T2, 384 kinases from the human genome (Homo sapiens, UniProt P36897); settings: kinase TGFBR1 (Entrez TGFBR1)
T2 construct: purchased Eurofin/DiscoverX
Procedure, shortened: as §1

[3] = biological target: T3, 384 kinases from the human genome (Homo sapiens, UniProt P29376); settings: kinase LTK (Entrez LTK)
T3 construct: purchased Eurofin/DiscoverX
Procedure, shortened: as §1

[4] = biological target: T4, 384 kinases from the human genome (Homo sapiens, UniProt P42345); settings: kinase MTOR (Entrez MTOR)
T4 construct: purchased Eurofin/DiscoverX
Procedure, shortened: as §1

[5] = biological target: T5, 384 kinases from the human genome (Homo sapiens, UniProt Q9H4B4); settings: kinase PLK3 (Entrez PLK3)
T5 construct: purchased Eurofin/DiscoverX
T5 sequence (Q9H4B4 whole entry): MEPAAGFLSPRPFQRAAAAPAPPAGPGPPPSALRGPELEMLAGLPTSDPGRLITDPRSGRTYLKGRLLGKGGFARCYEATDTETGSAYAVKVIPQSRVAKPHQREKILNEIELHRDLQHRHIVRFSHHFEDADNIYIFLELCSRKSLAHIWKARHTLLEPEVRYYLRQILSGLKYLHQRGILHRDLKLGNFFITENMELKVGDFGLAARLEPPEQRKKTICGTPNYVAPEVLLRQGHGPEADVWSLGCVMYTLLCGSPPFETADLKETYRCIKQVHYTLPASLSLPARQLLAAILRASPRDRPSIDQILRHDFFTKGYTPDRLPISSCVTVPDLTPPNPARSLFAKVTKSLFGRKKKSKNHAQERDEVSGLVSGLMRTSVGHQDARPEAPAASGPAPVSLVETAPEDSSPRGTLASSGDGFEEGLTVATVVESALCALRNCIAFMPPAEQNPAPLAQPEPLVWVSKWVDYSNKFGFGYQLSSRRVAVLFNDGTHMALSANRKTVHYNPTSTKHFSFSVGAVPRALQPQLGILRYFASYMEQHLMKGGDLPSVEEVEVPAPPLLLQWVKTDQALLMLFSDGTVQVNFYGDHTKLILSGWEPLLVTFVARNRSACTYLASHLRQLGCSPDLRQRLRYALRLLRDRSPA
Procedure, shortened: as §1

[6] = biological target: T6, 384 kinases from the human genome (Homo sapiens, UniProt Q6DT37); settings: kinase DMPK2 (Entrez CDC42BPG)
T6 construct: purchased Eurofin/DiscoverX
Procedure, shortened: as §1

[7] = biological target: T7, 384 kinases from the human genome (Homo sapiens, UniProt P36888)
T7 construct: purchased Eurofin/DiscoverX
T7 sequence (P36888 27-993): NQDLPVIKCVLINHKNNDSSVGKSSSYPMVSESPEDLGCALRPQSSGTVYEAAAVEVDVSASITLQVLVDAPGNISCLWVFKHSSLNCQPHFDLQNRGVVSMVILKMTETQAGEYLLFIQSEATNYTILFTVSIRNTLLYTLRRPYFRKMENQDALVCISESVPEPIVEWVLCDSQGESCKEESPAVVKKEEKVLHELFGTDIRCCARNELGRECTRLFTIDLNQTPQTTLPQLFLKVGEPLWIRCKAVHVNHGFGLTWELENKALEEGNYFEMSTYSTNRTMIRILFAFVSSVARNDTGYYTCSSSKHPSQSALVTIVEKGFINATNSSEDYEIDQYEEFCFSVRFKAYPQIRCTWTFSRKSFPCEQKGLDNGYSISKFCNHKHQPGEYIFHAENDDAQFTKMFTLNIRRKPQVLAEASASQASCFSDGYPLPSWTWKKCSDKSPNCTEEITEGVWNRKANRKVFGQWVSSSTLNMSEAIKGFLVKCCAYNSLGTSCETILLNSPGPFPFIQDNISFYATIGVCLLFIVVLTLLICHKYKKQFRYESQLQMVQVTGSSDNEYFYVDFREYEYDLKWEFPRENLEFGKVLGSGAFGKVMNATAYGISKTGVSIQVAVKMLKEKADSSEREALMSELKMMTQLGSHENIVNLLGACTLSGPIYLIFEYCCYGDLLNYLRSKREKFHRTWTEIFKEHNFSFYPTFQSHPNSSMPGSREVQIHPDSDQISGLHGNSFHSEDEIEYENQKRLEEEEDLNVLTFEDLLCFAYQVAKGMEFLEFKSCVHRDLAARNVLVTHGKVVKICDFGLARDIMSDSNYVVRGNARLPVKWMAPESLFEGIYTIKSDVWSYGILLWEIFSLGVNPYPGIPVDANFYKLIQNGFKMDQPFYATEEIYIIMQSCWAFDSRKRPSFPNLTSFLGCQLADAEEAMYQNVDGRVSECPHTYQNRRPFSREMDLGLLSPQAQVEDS
Procedure, shortened: as §1

[8] = biological target: T8, 384 kinases from the human genome (Homo sapiens, UniProt P51451); settings: kinase BLK (Entrez BLK)
T8 construct: purchased Eurofin/DiscoverX
Procedure, shortened: as §1

[9] = biological target: T9, 384 kinases from the human genome (Homo sapiens, UniProt O60285); settings: kinase ARK5 (Entrez NUAK1)
T9 construct: purchased Eurofin/DiscoverX
T9 sequence (O60285 whole entry): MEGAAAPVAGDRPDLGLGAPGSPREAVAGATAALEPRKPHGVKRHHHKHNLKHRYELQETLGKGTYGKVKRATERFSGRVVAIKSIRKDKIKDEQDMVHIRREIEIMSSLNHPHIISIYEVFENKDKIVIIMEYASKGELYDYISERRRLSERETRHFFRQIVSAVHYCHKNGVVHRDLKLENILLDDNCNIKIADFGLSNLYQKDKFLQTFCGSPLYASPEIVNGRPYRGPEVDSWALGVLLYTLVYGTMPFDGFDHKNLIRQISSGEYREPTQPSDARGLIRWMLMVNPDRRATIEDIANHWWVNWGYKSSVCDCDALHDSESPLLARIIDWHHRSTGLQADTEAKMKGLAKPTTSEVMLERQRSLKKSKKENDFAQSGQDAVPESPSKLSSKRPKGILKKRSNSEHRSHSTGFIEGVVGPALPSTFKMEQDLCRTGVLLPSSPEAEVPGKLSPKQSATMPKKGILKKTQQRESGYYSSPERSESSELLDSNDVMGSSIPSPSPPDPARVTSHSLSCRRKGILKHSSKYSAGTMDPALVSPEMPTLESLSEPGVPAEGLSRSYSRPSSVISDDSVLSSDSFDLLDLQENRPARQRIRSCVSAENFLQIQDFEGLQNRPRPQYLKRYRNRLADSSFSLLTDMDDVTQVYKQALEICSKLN
Procedure, shortened: as §1

[10] = biological target: T10, 384 kinases from the human genome (Homo sapiens, UniProt O15197); settings: kinase EPHB6 (Entrez EPHB6)
T10 construct: purchased Eurofin/DiscoverX
T10 sequence (O15197 32-1021): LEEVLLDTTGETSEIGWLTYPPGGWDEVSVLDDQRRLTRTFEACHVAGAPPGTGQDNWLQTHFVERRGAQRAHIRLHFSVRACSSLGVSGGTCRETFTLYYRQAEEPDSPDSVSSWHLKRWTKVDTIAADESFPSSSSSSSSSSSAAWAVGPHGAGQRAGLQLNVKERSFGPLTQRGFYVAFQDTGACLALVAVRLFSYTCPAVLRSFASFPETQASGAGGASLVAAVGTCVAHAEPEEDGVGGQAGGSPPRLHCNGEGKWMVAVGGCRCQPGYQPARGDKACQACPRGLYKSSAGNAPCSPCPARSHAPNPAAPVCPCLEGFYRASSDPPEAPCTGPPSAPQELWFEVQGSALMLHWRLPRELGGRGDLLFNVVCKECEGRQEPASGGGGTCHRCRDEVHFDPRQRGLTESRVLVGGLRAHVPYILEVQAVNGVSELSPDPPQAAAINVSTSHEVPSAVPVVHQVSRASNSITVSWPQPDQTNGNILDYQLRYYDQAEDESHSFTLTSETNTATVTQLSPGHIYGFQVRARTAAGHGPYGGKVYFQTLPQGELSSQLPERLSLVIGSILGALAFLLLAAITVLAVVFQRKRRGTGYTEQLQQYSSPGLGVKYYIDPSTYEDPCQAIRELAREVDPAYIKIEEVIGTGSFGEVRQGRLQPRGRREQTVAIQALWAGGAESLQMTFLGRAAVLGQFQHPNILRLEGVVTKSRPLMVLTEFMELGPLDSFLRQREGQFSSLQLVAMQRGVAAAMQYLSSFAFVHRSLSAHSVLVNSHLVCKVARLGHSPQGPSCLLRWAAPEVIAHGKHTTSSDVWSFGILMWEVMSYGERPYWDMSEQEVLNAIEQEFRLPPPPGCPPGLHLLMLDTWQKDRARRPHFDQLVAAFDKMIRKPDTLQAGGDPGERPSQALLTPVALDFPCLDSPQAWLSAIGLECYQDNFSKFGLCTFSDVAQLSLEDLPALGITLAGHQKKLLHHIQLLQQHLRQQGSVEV
Procedure, shortened: as §1

[11] = biological target: T11, 384 kinases from the human genome (Homo sapiens, UniProt Q13233); settings: kinase MAP3K1 (Entrez MAP3K1)
T11 construct: purchased Eurofin/DiscoverX
T11 sequence (Q13233 whole entry): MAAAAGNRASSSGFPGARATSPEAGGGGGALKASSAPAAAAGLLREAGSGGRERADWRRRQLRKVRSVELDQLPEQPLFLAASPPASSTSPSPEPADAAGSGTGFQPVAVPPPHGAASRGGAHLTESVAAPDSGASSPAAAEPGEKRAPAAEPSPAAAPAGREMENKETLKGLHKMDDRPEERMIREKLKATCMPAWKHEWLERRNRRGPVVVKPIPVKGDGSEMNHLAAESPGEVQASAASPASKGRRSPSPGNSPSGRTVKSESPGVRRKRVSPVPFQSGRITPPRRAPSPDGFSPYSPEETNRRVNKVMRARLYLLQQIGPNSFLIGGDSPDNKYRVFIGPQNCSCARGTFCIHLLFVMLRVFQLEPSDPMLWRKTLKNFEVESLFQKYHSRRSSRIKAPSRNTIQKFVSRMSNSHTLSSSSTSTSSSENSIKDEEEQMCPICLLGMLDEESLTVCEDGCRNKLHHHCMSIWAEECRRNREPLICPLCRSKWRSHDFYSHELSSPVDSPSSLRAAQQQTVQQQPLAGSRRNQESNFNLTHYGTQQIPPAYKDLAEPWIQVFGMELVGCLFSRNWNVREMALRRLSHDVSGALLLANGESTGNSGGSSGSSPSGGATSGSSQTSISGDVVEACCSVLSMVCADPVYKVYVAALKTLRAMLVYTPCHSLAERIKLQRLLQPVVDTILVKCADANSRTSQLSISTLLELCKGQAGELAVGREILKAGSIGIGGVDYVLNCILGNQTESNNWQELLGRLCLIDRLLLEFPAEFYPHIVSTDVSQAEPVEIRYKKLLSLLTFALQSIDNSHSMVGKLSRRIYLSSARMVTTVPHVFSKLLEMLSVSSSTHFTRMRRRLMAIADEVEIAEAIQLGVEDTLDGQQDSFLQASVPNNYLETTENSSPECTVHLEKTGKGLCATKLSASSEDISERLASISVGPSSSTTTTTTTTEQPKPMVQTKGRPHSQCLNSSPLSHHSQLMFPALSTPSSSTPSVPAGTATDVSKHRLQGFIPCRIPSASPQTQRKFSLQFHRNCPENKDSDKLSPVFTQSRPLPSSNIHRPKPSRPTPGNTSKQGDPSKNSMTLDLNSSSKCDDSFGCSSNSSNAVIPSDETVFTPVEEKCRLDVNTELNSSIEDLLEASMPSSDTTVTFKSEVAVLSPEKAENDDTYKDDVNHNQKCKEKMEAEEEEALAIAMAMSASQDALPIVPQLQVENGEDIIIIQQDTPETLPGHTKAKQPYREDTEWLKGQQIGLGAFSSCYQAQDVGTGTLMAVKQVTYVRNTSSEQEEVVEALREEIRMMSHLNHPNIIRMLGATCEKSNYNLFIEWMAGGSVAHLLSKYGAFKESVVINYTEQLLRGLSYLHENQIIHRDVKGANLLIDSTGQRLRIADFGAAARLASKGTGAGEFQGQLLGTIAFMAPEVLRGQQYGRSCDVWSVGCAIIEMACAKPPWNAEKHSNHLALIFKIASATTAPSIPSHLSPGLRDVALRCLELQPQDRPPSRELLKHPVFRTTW
Procedure, shortened: as §1

[12] = biological target: T12, 384 kinases from the human genome (Homo sapiens, UniProt Q8WU08); settings: kinase YANK1 (Entrez STK32A)
T12 construct: purchased Eurofin/DiscoverX
Procedure, shortened: as §1

[13] = biological target: T13, 384 kinases from the human genome (Homo sapiens, UniProt P43403); settings: kinase ZAP70 (Entrez ZAP70)
T13 construct: purchased Eurofin/DiscoverX
T13 sequence (P43403 whole entry): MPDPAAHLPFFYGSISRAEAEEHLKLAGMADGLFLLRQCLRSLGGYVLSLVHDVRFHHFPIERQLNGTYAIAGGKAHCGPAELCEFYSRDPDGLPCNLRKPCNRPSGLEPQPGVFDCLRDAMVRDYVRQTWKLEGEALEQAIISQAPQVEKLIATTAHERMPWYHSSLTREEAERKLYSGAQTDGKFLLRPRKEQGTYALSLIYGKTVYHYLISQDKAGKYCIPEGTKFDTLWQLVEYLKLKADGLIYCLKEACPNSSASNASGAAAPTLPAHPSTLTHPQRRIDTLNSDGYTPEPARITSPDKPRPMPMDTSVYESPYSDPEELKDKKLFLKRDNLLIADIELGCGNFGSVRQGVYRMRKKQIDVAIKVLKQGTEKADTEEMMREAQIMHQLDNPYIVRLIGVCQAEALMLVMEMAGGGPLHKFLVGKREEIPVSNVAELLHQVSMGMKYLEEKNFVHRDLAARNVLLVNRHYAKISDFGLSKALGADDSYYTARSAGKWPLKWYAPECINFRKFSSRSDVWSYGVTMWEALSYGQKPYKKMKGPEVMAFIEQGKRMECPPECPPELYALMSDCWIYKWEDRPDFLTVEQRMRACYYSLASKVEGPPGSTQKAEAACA
Procedure, shortened: as §1

[14] = biological target: T14, 384 kinases from the human genome (Homo sapiens, UniProt P45984); settings: kinase JNK2 (Entrez MAPK9)
T14 construct: purchased Eurofin/DiscoverX
Procedure, shortened: as §1

[15] = biological target: T15, 384 kinases from the human genome (Homo sapiens, UniProt P31751); settings: kinase AKT2 (Entrez AKT2)
T15 construct: purchased Eurofin/DiscoverX
Procedure, shortened: as §1

[16] = biological target: T16, 384 kinases from the human genome (Homo sapiens, UniProt Q16566); settings: kinase CAMK4 (Entrez CAMK4)
T16 construct: purchased Eurofin/DiscoverX
Procedure, shortened: as §1

T1 sequence (Q9BWU1 whole entry): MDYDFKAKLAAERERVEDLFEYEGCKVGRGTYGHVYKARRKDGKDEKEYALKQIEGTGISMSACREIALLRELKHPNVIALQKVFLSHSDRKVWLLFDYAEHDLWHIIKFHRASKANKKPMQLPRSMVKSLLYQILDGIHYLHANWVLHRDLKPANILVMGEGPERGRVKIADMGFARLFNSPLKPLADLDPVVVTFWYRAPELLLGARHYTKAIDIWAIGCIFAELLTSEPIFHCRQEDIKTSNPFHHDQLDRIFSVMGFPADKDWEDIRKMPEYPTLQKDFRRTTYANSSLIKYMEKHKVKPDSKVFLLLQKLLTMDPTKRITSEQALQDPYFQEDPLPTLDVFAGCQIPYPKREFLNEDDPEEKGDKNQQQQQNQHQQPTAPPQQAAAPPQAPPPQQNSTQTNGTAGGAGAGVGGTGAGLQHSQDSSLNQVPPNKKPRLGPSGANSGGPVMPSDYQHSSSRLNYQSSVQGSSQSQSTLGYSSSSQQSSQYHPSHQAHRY

CC(C)C(=O)N1CCN(c2ccc(NC(=O)c3cc4ccccc4o3)cc2Cl)CC1 [Compound 21]
Percent Control [1]: 100% | Percent Control [2]: 79% | Percent Control [3]: 90% | Percent Control [4]: 65% | Percent Control [5]: 81% | Percent Control [6]: 77% | FLT3 binding to its ligand affected ([7]; 10 µM of 21, compared to DMSO (100%)): more than 90% | Percent Control ([7]; kinase FLT3 (Entrez FLT3)): 6.6% | Percent Control ([7]; kinase FLT3-autoinhibited (Entrez FLT3)): 71% | Percent Control [8]: 78% | Percent Control [9]: 97% | Percent Control [10]: 98% | Percent Control [11]: 92% | Percent Control [12]: 81% | Percent Control [13]: 98% | Percent Control [14]: 70% | Percent Control [15]: 100% | Percent Control [16]: 100%
